According to PubChem BioAssay AID1259407 (Chemical Carcinogenesis Research Information System (CCRIS), 2018):
Calls of active or inactive are those of the source. How the calls were made is not given here.

Tested on: CCRIS mutagenicity, Ames/micronucleus/aberration tests
Assay: CCRIS mutagenicity studies
[1] = Test System: AMES SALMONELLA TYPHIMURIUM, Strain/Indicator: TA98, Metabolic Activation: NONE, Method: PREINCUBATION
[2] = Test System: AMES SALMONELLA TYPHIMURIUM, Strain/Indicator: TA100, Metabolic Activation: NONE, Method: PREINCUBATION

Q: Which mutagenic call (Test System: AMES SALMONELLA TYPHIMURIUM, Strain/Indicator: TA97, Metabolic Activation: HAMSTER, LIVER, S-9, AROCLOR 1254 (10 OR 30%), Method: PREINCUBATION) does the source give for `Nc1ccc(Cl)cc1Cl` here?
A: The mutagenic call was “inactive; negative”.

Q: And the mutagenic call (Test System: AMES SALMONELLA TYPHIMURIUM, Strain/Indicator: TA97, Metabolic Activation: NONE, Method: PREINCUBATION)?
A: Its mutagenic call is “inactive; negative”.

Q: What about the mutagenic call (Test System: AMES SALMONELLA TYPHIMURIUM, Strain/Indicator: TA97, Metabolic Activation: RAT, LIVER, S-9, AROCLOR 1254 (10 OR 30%), Method: PREINCUBATION) of the same molecule?
A: Its mutagenic call is “inactive; negative”.

Q: What about the mutagenic call (Test System: AMES SALMONELLA TYPHIMURIUM, Strain/Indicator: TA98, Metabolic Activation: HAMSTER, LIVER, S-9, AROCLOR 1254 (10%), Method: PREINCUBATION) of the same molecule?
A: The mutagenic call was “inactive; negative”.

Q: And the mutagenic call (Test System: AMES SALMONELLA TYPHIMURIUM, Strain/Indicator: TA98, Metabolic Activation: HAMSTER, LIVER, S-9, AROCLOR 1254 (30%), Method: PREINCUBATION)?
A: The mutagenic call was “inactive; negative”.

Q: What about the mutagenic call [1] of the same molecule?
A: The mutagenic call was “inactive; negative”.

Q: And the mutagenic call (Test System: AMES SALMONELLA TYPHIMURIUM, Strain/Indicator: TA98, Metabolic Activation: RAT, LIVER, S-9, AROCLOR 1254 (5 OR 30%), Method: PREINCUBATION)?
A: Its mutagenic call is “inactive; negative”.

Q: What about the mutagenic call (Test System: AMES SALMONELLA TYPHIMURIUM, Strain/Indicator: TA98, Metabolic Activation: RAT, LIVER, S-9, AROCLOR 1254 (10%), Method: PREINCUBATION) of the same molecule?
A: The mutagenic call was “inactive; negative”.

Q: And the mutagenic call (Test System: AMES SALMONELLA TYPHIMURIUM, Strain/Indicator: TA100, Metabolic Activation: HAMSTER, LIVER, S-9, AROCLOR 1254 (5%), Method: PREINCUBATION)?
A: The mutagenic call was “inactive; negative”.

Q: What about the mutagenic call (Test System: AMES SALMONELLA TYPHIMURIUM, Strain/Indicator: TA100, Metabolic Activation: HAMSTER, LIVER, S-9, AROCLOR 1254 (10%), Method: PREINCUBATION) of the same molecule?
A: Its mutagenic call is “inactive; negative”.

Q: And the mutagenic call (Test System: AMES SALMONELLA TYPHIMURIUM, Strain/Indicator: TA100, Metabolic Activation: HAMSTER, LIVER, S-9, AROCLOR 1254 (30%), Method: PREINCUBATION)?
A: Its mutagenic call is “inactive; negative”.

Q: What about the mutagenic call [2] of the same molecule?
A: The mutagenic call was “inactive; negative”.

Q: And the mutagenic call (Test System: AMES SALMONELLA TYPHIMURIUM, Strain/Indicator: TA100, Metabolic Activation: RAT, LIVER, S-9, AROCLOR 1254 (10%), Method: PREINCUBATION)?
A: Its mutagenic call is “inactive; negative”.

Q: And the mutagenic call (Test System: AMES SALMONELLA TYPHIMURIUM, Strain/Indicator: TA100, Metabolic Activation: RAT, LIVER, S-9, AROCLOR 1254 (30%), Method: PREINCUBATION)?
A: Its mutagenic call is “inactive; negative”.

Q: And the mutagenic call (Test System: AMES SALMONELLA TYPHIMURIUM, Strain/Indicator: TA1535, Metabolic Activation: HAMSTER, LIVER, S-9, AROCLOR 1254 (10 OR 30%), Method: PREINCUBATION)?
A: Its mutagenic call is “inactive; negative”.

Q: What about the mutagenic call (Test System: AMES SALMONELLA TYPHIMURIUM, Strain/Indicator: TA1535, Metabolic Activation: NONE, Method: PREINCUBATION) of the same molecule?
A: Its mutagenic call is “inactive; negative”.

Q: What about the mutagenic call (Test System: AMES SALMONELLA TYPHIMURIUM, Strain/Indicator: TA1535, Metabolic Activation: RAT, LIVER, S-9, AROCLOR 1254 (10 OR 30%), Method: PREINCUBATION) of the same molecule?
A: The mutagenic call was “inactive; negative”.

Q: And the mutagenic call (Test System: AMES SALMONELLA TYPHIMURIUM, Strain/Indicator: TA1537, Metabolic Activation: HAMSTER, LIVER, S-9, AROCLOR 1254 (30%), Method: PREINCUBATION)?
A: Its mutagenic call is “inactive; negative”.

Q: What about the mutagenic call (Test System: AMES SALMONELLA TYPHIMURIUM, Strain/Indicator: TA1537, Metabolic Activation: NONE, Method: PREINCUBATION) of the same molecule?
A: The mutagenic call was “inactive; negative”.

Q: And the mutagenic call (Test System: AMES SALMONELLA TYPHIMURIUM, Strain/Indicator: TA1537, Metabolic Activation: RAT, LIVER, S-9, AROCLOR 1254 (30%), Method: PREINCUBATION)?
A: Its mutagenic call is “inactive; negative”.

Q: Which mutagenic call (Test System: AMES SALMONELLA TYPHIMURIUM, Strain/Indicator: TA98, Metabolic Activation: NONE, Method: STANDARD PLATE) does the source give for `CCCCCCCOP(=S)([S-])OCCCCCCC.CCCCCCCOP(=S)([S-])OCCCCCCC.[Zn+2]` here?
A: The mutagenic call was “inactive; negative”.

Q: What about the mutagenic call (Test System: AMES SALMONELLA TYPHIMURIUM, Strain/Indicator: TA98, Metabolic Activation: RAT, LIVER, S-9, Method: STANDARD PLATE) of the same molecule?
A: The mutagenic call was “inactive; negative”.

Q: And the mutagenic call (Test System: AMES SALMONELLA TYPHIMURIUM, Strain/Indicator: TA100, Metabolic Activation: NONE, Method: STANDARD PLATE)?
A: Its mutagenic call is “inactive; negative”.

Q: What about the mutagenic call (Test System: AMES SALMONELLA TYPHIMURIUM, Strain/Indicator: TA100, Metabolic Activation: RAT, LIVER, S-9, Method: STANDARD PLATE) of the same molecule?
A: Its mutagenic call is “inactive; negative”.

Q: What about the mutagenic call (Test System: AMES SALMONELLA TYPHIMURIUM, Strain/Indicator: TA102, Metabolic Activation: NONE, Method: STANDARD PLATE) of the same molecule?
A: The mutagenic call was “inactive; negative”.

Q: And the mutagenic call (Test System: AMES SALMONELLA TYPHIMURIUM, Strain/Indicator: TA102, Metabolic Activation: RAT, LIVER, S-9, Method: STANDARD PLATE)?
A: Its mutagenic call is “inactive; negative”.

Q: How did the mutagenic call (Test System: AMES SALMONELLA TYPHIMURIUM, Strain/Indicator: TA98, Metabolic Activation: HAMSTER, LIVER, S-9, AROCLOR 1254, Method: PREINCUBATION) turn out when `C1CS1` was run?
A: The mutagenic call was “inactive; negative”.

Q: And the mutagenic call [1]?
A: Its mutagenic call is “inactive; negative”.

Q: And the mutagenic call (Test System: AMES SALMONELLA TYPHIMURIUM, Strain/Indicator: TA98, Metabolic Activation: RAT, LIVER, S-9, AROCLOR 1254, Method: PREINCUBATION)?
A: Its mutagenic call is “inactive; negative”.

Q: And the mutagenic call (Test System: AMES SALMONELLA TYPHIMURIUM, Strain/Indicator: TA100, Metabolic Activation: HAMSTER, LIVER, S-9, AROCLOR 1254, Method: PREINCUBATION)?
A: Its mutagenic call is “active; positive”.

Q: And the mutagenic call [2]?
A: Its mutagenic call is “active; positive”.

Q: And the mutagenic call (Test System: AMES SALMONELLA TYPHIMURIUM, Strain/Indicator: TA100, Metabolic Activation: RAT, LIVER, S-9, AROCLOR 1254, Method: PREINCUBATION)?
A: Its mutagenic call is “active; positive”.

Q: What about the mutagenic call (Test System: MOUSE LYMPHOMA, Strain/Indicator: L5178Y (TK+/TK-), Metabolic Activation: NONE, Method: SUSPENSION/PLATE) of the same molecule?
A: The mutagenic call was “active; positive. reevaluation of results: positive”.

Q: And the mutagenic call (Test System: MOUSE LYMPHOMA, Strain/Indicator: L5178Y (TK+/TK-), Metabolic Activation: RAT, LIVER, S-9, AROCLOR 1254, Method: SUSPENSION/PLATE)?
A: The mutagenic call was “active; positive. reevaluation of results: positive”.

Q: With `CCCCCC/C=C/C=O` as the molecule, how does the mutagenic call (End Point: IN VITRO CHROMOSOMAL ABERRATIONS, Test System: RAT HEPATOCYTES, Metabolic Activation: NONE) read?
A: The mutagenic call was “inactive; negative”.

Q: And the mutagenic call (End Point: IN VITRO MICRONUCLEUS, Test System: RAT HEPATOCYTES, Metabolic Activation: NONE)?
A: The mutagenic call was “inactive; negative”.

Q: What about the mutagenic call (Test System: CHINESE HAMSTER V-79, Strain/Indicator: V-79/6-THIOGUANINE, Metabolic Activation: NONE, Method: STANDARD PLATE) of the same molecule?
A: The mutagenic call was “active; positive”.

Q: What about the mutagenic call (Test System: CHINESE HAMSTER V-79, Strain/Indicator: V-79/OUABAIN, Metabolic Activation: NONE, Method: STANDARD PLATE) of the same molecule?
A: The mutagenic call was “inactive; negative”.

Q: Which mutagenic call [2] does the source give for `ClC1OC1CBr` (configuration not stated) here?
A: Its mutagenic call is “active; positive”.

Q: Which results are given for `O[C@H]1[C@H]2O[C@H]2c2c(ccc3cc4c(ccc5ccccc54)nc23)[C@@H]1O`?
A: mutagenic call [1]: active; positive; mutagenic call [2]: active; positive; mutagenic call (Test System: CHINESE HAMSTER V-79, Strain/Indicator: V-79/8-AZAGUANINE, Metabolic Activation: NONE): active; positive

Q: Which mutagenic call [2] does the source give for `CCC(C)[N+](=O)[O-]` (configuration not stated) here?
A: The mutagenic call was “inactive; negative”.

Q: And the mutagenic call (Test System: AMES SALMONELLA TYPHIMURIUM, Strain/Indicator: TA100, Metabolic Activation: RAT, LIVER, S-9, AROCLOR, Method: PREINCUBATION)?
A: Its mutagenic call is “inactive; negative”.

Q: And the mutagenic call (Test System: AMES SALMONELLA TYPHIMURIUM, Strain/Indicator: TA102, Metabolic Activation: NONE, Method: PREINCUBATION)?
A: Its mutagenic call is “inactive; negative”.

Q: And the mutagenic call (Test System: AMES SALMONELLA TYPHIMURIUM, Strain/Indicator: TA102, Metabolic Activation: RAT, LIVER, S-9, AROCLOR, Method: PREINCUBATION)?
A: The mutagenic call was “inactive; negative”.

Q: And the mutagenic call (Test System: E. COLI, Strain/Indicator: WP2 UVRA (PKM101), Metabolic Activation: NONE, Method: PREINCUBATION)?
A: The mutagenic call was “active; positive”.

Q: What about the mutagenic call (Test System: E. COLI, Strain/Indicator: WP2 UVRA (PKM101), Metabolic Activation: RAT, LIVER, S-9, KANECHLOR 1254, Method: PREINCUBATION) of the same molecule?
A: Its mutagenic call is “active; positive”.

Q: And the mutagenic call (Test System: UDS RAT HEPATOCYTES, Strain/Indicator: THY INCORP, Metabolic Activation: NONE)?
A: The mutagenic call was “active; positive”.

Q: How did the mutagenic call [1] turn out when `ClCc1c2ccccc2cc2ccccc12` was run?
A: Its mutagenic call is “active; positive”.

Q: And the mutagenic call (Test System: AMES SALMONELLA TYPHIMURIUM, Strain/Indicator: TA98, Metabolic Activation: RAT, LIVER, S-9, PCB, Method: PREINCUBATION)?
A: The mutagenic call was “active; positive”.

Q: And the mutagenic call [2]?
A: Its mutagenic call is “active; positive”.

Q: And the mutagenic call (Test System: AMES SALMONELLA TYPHIMURIUM, Strain/Indicator: TA100, Metabolic Activation: RAT, LIVER, S-9, PCB, Method: PREINCUBATION)?
A: Its mutagenic call is “active; positive”.

Q: What does the source list for `CCCCN(CC(O)c1ccc([O-])c([N+]#N)c1)N=O` (configuration not stated)?
A: mutagenic call [1]: active; positive; mutagenic call (Test System: AMES SALMONELLA TYPHIMURIUM, Strain/Indicator: TA98, Method: PREINCUBATION): active; positive; mutagenic call [2]: active; positive; mutagenic call (Test System: AMES SALMONELLA TYPHIMURIUM, Strain/Indicator: TA100, Method: PREINCUBATION): active; positive
